From PubChem BioAssay AID1963440 (Molecular Pharmacology Branch, DTP, NCI, 2024) come the findings set out here.

“And” between values parts separate entries of the source, which are not always exact repeats. Identical values can stand only once.

The assay has as its system NCI-H1417 complex spheroids, growth % test/control. The assay is described as follows: Anticancer human tumor NCI-H1417 cell line growth inhibition [Asc].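 For all read-outs here: spheroids exposed to compounds for 7 days.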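 For viability, T/C: 100% = DMSO vehicle control wells.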 The settings on record: for viability, T/C: stronger effect = lower value. In outline: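 Spheroid model: tumor line + HUVEC + hMSC. Single agents and combinations; top conc. at/near clinical Cmax (10 microM if undetermined), half-log dilutions. DMSO stocks at 800-fold test concentration.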

Setting [1] is: curve of first compound, second compound 0.1 µM.
Setting [2] is: curve of first compound, second compound 0.316 µM.
The mark [3] stands for this setting: curve of first compound, second compound 1 µM.
The mark [4] stands for this setting: second compound 0.1 µM, first compound 0.00316 µM.
[5] abbreviates: second compound 0.1 µM, first compound 0.01 µM.
[6] abbreviates: second compound 0.1 µM, first compound 0.0316 µM.
Where [7] appears, read: second compound 0.1 µM, first compound 0.1 µM.
Where [8] appears, read: second compound 0.1 µM, first compound 0.316 µM.
Where [9] appears, read: second compound 0.1 µM, first compound 1 µM.
The mark [10] stands for this setting: second compound 0.316 µM, first compound 0.00316 µM.
[11] abbreviates: second compound 0.316 µM, first compound 0.01 µM.
[12] abbreviates: second compound 0.316 µM, first compound 0.0316 µM.
[13] abbreviates: second compound 0.316 µM, first compound 0.1 µM.
The mark [14] stands for this setting: second compound 0.316 µM, first compound 0.316 µM.
Setting [15] is: second compound 0.316 µM, first compound 1 µM.
The mark [16] stands for this setting: second compound 1 µM, first compound 0.00316 µM.
Where [17] appears, read: second compound 1 µM, first compound 0.01 µM.
Where [18] appears, read: second compound 1 µM, first compound 0.0316 µM.
[19] abbreviates: second compound 1 µM, first compound 0.1 µM.
Setting [20] is: second compound 1 µM, first compound 0.316 µM.
The mark [21] stands for this setting: second compound 1 µM, first compound 1 µM.
Where [22] appears, read: curve of first compound, second compound 3.16 µM.
Setting [23] is: curve of first compound, second compound 10 µM.

Regarding `COc1c(OCCCN2CCOCC2)ccc2c3n(c(=NC(=O)c4cnc(N)nc4)nc12)CCN3` + CNC(C)C(=O)NC1CN(S(=O)(=O)c2cccc(S(=O)(=O)N3CCC4CCC(C(=O)NC(c5ccccc5)c5ccccc5)N4C(=O)C(NC(=O)C(C)NC)C3)c2)CCC2CCC(C(=O)NC(c3ccccc3)c3ccccc3)N2C1=O, the IC50 (usually the concentration needed to halve the response being measured) was greater than 1000 nM (curve of first compound, second compound 0.01 µM); greater than 1000 nM (curve of first compound, second compound 0.0316 µM); greater than 1000 nM under setting [1]; greater than 1000 nM under setting [2]; greater than 1000 nM under setting [3]. Besides, the viability, T/C (in general, the ratio of treated to control) is, setting by setting: (second compound 0.01 µM, first compound 0.00316 µM) 95.5%; (second compound 0.01 µM, first compound 0.01 µM) 109%; (second compound 0.01 µM, first compound 0.0316 µM) 100%; (second compound 0.01 µM, first compound 0.1 µM) 82.3%; (second compound 0.01 µM, first compound 0.316 µM) 79.4%; (second compound 0.01 µM, first compound 1 µM) 58.4%. The viability, T/C is, setting by setting: (second compound 0.0316 µM, first compound 0.00316 µM) 96.1%; (second compound 0.0316 µM, first compound 0.01 µM) 93.8%; (second compound 0.0316 µM, first compound 0.0316 µM) 91.1%; (second compound 0.0316 µM, first compound 0.1 µM) 78.5%; (second compound 0.0316 µM, first compound 0.316 µM) 77.2%; (second compound 0.0316 µM, first compound 1 µM) 57.8%. For the same molecule, the viability, T/C is, setting by setting: under setting [4], 95.4%; under setting [5], 96.5%; under setting [6], 96.6%; under setting [7], 81.1%; under setting [8], 71.4%; under setting [9], 53.8%. Besides, the viability, T/C runs as follows: under setting [10], 99.4%; under setting [11], 97.7%; under setting [12], 87.2%; under setting [13], 74.1%; under setting [14], 69.2%; under setting [15], 56.4%. In addition, the viability, T/C runs as follows: under setting [16], 97.7%; under setting [17], 99%; under setting [18], 90.1%; under setting [19], 83.4%; under setting [20], 77.2%; under setting [21], 56.4%.

Turning to `O=C(c1cc(Cc2n[nH]c(=O)c3ccccc23)ccc1F)N1CCN(C(=O)C2CC2)CC1`, the viability, T/C (compound 0.0316 µM) is 96.7% and 102% and 86.3%; the viability, T/C (compound 0.1 µM) was 106% and 90.7% and 91.3%; the viability, T/C (compound 0.316 µM) was 89.8% and 84.6% and 86.3%; the viability, T/C (compound 1 µM) was 80.9% and 84.3% and 99.2%; the viability, T/C (compound 3.16 µM) was 56.5% and 56.2% and 71%; the viability, T/C (compound 10 µM) was 38.3% and 24.6% and 36%. The 50% inhibitory concentration (IC50) (curve of compound) was 4830 nM and 4200 nM and 6310 nM.

Turning to `NC(=O)C(=Cn1cnc(-c2cc(C(F)(F)F)cc(C(F)(F)F)c2)n1)c1cncnc1` + Cc1c(S(C)(=O)=O)c(-c2cc(F)cc(N3CCN(c4ccc(NS(=O)(=O)c5ccc(NC(CCN6CCC(C(=O)OCCCP(=O)(O)O)CC6)CSc6ccccc6)c(S(=O)(=O)C(F)(F)F)c5)cc4)CC3)c2)c(-c2ccc(Cl)cc2)n1C(C)C, the IC50 by setting is: under setting [1], 11.1 nM; under setting [2], less than 0.949 nM; under setting [3], less than 0.949 nM; under setting [22], less than 0.949 nM; under setting [23], less than 0.949 nM. For the same molecule, the viability, T/C (second compound 0.1 µM, first compound 0.000949 µM) is 75.4%; the viability, T/C (second compound 0.1 µM, first compound 0.003 µM) was 77.7%; the viability, T/C (second compound 0.1 µM, first compound 0.00949 µM) is 51.9%; the viability, T/C (second compound 0.1 µM, first compound 0.03 µM) is 24.1%; the viability, T/C (second compound 0.1 µM, first compound 0.0949 µM) was 8.22%; the viability, T/C (second compound 0.1 µM, first compound 0.3 µM) was 3.52%. Further, the viability, T/C by setting is: (second compound 0.316 µM, first compound 0.000949 µM) 38.6%; (second compound 0.316 µM, first compound 0.003 µM) 29.7%; (second compound 0.316 µM, first compound 0.00949 µM) 20.7%; (second compound 0.316 µM, first compound 0.03 µM) 10.5%; (second compound 0.316 µM, first compound 0.0949 µM) 3.84%; (second compound 0.316 µM, first compound 0.3 µM) 1.35%. For the same molecule, the viability, T/C runs as follows: (second compound 1 µM, first compound 0.000949 µM) 8.75%; (second compound 1 µM, first compound 0.003 µM) 8.33%; (second compound 1 µM, first compound 0.00949 µM) 5.84%; (second compound 1 µM, first compound 0.03 µM) 3.45%; (second compound 1 µM, first compound 0.0949 µM) 1.82%; (second compound 1 µM, first compound 0.3 µM) 0.83%. Further, the viability, T/C runs as follows: (second compound 3.16 µM, first compound 0.000949 µM) 2.8%; (second compound 3.16 µM, first compound 0.003 µM) 2.41%; (second compound 3.16 µM, first compound 0.00949 µM) 2.15%; (second compound 3.16 µM, first compound 0.03 µM) 2.26%; (second compound 3.16 µM, first compound 0.0949 µM) 1.59%; (second compound 3.16 µM, first compound 0.3 µM) 0.92%. For the same molecule, the viability, T/C is 2.33% (second compound 10 µM, first compound 0.000949 µM); 1.83% (second compound 10 µM, first compound 0.003 µM); 2.16% (second compound 10 µM, first compound 0.00949 µM); 2.37% (second compound 10 µM, first compound 0.03 µM); 1.29% (second compound 10 µM, first compound 0.0949 µM); 0.5% (second compound 10 µM, first compound 0.3 µM).

As to `O=C(c1ccc(F)c(F)c1Nc1ccc(I)cc1F)N1CC(O)([C@@H]2CCCCN2)C1` + Cc1c(S(C)(=O)=O)c(-c2cc(F)cc(N3CCN(c4ccc(NS(=O)(=O)c5ccc(NC(CCN6CCC(C(=O)OCCCP(=O)(O)O)CC6)CSc6ccccc6)c(S(=O)(=O)C(F)(F)F)c5)cc4)CC3)c2)c(-c2ccc(Cl)cc2)n1C(C)C, the 50% inhibitory concentration (IC50) runs as follows: under setting [1], greater than 1000 nM; under setting [2], less than 3.16 nM; under setting [3], less than 3.16 nM; under setting [22], less than 3.16 nM; under setting [23], less than 3.16 nM. The viability, T/C is 84.2% under setting [4]; 81.2% under setting [5]; 80.8% under setting [6]; 83.7% under setting [7]; 71.5% under setting [8]; 59.1% under setting [9]. Besides, the viability, T/C is, setting by setting: under setting [10], 46.5%; under setting [11], 50.1%; under setting [12], 44.7%; under setting [13], 37.9%; under setting [14], 28.8%; under setting [15], 33.4%. Further, the viability, T/C is, setting by setting: under setting [16], 13.9%; under setting [17], 11.9%; under setting [18], 10.4%; under setting [19], 5.1%; under setting [20], 2.22%; under setting [21], 2.04%. The viability, T/C by setting is: (second compound 3.16 µM, first compound 0.00316 µM) 2.87%; (second compound 3.16 µM, first compound 0.01 µM) 2.41%; (second compound 3.16 µM, first compound 0.0316 µM) 2.22%; (second compound 3.16 µM, first compound 0.1 µM) 0.97%; (second compound 3.16 µM, first compound 0.316 µM) 0.48%; (second compound 3.16 µM, first compound 1 µM) 0.27%. The viability, T/C is, setting by setting: (second compound 10 µM, first compound 0.00316 µM) 2.15%; (second compound 10 µM, first compound 0.01 µM) 1.85%; (second compound 10 µM, first compound 0.0316 µM) 1.55%; (second compound 10 µM, first compound 0.1 µM) 0.9%; (second compound 10 µM, first compound 0.316 µM) 1.3%; (second compound 10 µM, first compound 1 µM) 0.32%.

`NC(=O)C(=Cn1cnc(-c2cc(C(F)(F)F)cc(C(F)(F)F)c2)n1)c1cncnc1`: the viability, T/C was 98.9% and 102% and 99.9% (compound 0.000949 µM); 99.9% and 106% and 107% (compound 0.003 µM); 89.7% and 96.8% and 104% (compound 0.00949 µM); 93% and 97.1% and 94.3% (compound 0.03 µM); 79.8% and 61.8% and 85.1% (compound 0.0949 µM); 25.3% and 22.2% and 44.6% (compound 0.3 µM). For the same molecule, the IC50 (curve of compound) is 178 nM and 134 nM and 259 nM.
